Patent US10201546B2, “Quinolinyl modulators of RORγt” (Janssen Pharmaceutica NV, priority 2013, dated 2019)

The compounds below were run against human RORγt LBD fused to the DNA binding domain of the GAL4 protein (Homo sapiens (Human), UniProt P51449) (assay: RORγt (LBD) reporter assay in HEK293T cells). Conditions: not given.
Format: cell-based
Set-up: RORγt (LBD) Reporter Assay, % inhibition: dose or concentration left out as unconfirmed

Sequence of human RORγt LBD fused to the DNA binding domain of the GAL4 protein (P51449 258-518): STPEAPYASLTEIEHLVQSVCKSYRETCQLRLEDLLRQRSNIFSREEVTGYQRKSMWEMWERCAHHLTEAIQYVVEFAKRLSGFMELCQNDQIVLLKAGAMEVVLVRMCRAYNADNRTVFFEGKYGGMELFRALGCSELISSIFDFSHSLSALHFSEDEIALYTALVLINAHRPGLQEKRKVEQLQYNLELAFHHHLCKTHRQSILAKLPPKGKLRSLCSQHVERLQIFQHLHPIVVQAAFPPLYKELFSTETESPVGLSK

| SMILES | RORγt (LBD) Reporter Assay, % inhibition |
| --- | --- |
| COc1nc2ccc(C(O)(c3ccc(C)nc3C)c3cnnn3C)cc2c(Cl)c1C1CCCC1 (single isomer, unassigned) [Example 136b, (4-Chloro-3-cyclopentyl-2-methoxyquinolin-6-yl)(2,6-dimethylpyridin-3-yl)(1-methyl-1H-1,2,3-triazol-5-yl)methanol] | 76% |
| COc1nc2ccc(C(O)(c3ccc(C)nc3C)c3cnnn3C)cc2c(Cl)c1CC(F)(F)F (single isomer, unassigned) [Example 143b, [4-Chloro-2-methoxy-3-(2,2,2-trifluoroethyl)quinolin-6-yl](2,6-dimethylpyridin-3-yl)(1-methyl-1H-1,2,3-triazol-5-yl)methanol] | 77% |
| COc1nc2ccc(C(O)(c3ccc(C)nc3C)c3cnnn3C)cc2c(Cl)c1C1CCCC1 (stereo not drawn) [Example 136a, (4-Chloro-3-cyclopentyl-2-methoxyquinolin-6-yl)(2,6-dimethylpyridin-3-yl)(1-methyl-1H-1,2,3-triazol-5-yl)methanol] | 97% |

Same assay, conditions: @ 6 μM

| SMILES | RORγt (LBD) Reporter Assay, % inhibition @ 6 μM |
| --- | --- |
| COc1nc2ccc(C(O)(c3ccc(C)nc3C)c3cnnn3C)cc2c(Cl)c1CN1CC(C(F)(F)F)C1 (single isomer, unassigned) [Example 114c, (4-Chloro-2-methoxy-3-((3-(trifluoromethyl)azetidin-1-yl)methyl)quinolin-6-yl)(2,6-dimethylpyridin-3-yl)(1-methyl-1H-1,2,3-triazol-5-yl)methanol] | 72% |
| COc1nc2ccc(C(O)(c3ccc(C)nc3C)c3cnnn3C)cc2c(Cl)c1CN1CCC(n2cccn2)CC1 (single isomer, unassigned) [Example 105c, (3-((4-(1H-Pyrazol-1-yl)piperidin-1-yl)methyl)-4-chloro-2-methoxyquinolin-6-yl)(2,6-dimethylpyridin-3-yl)(1-methyl-1H-1,2,3-triazol-5-yl)methanol] | 87% |
| COc1nc2ccc(C(O)(c3ccc(C)nc3C)c3cnnn3C)cc2c(Cl)c1OCc1nccs1 (single isomer, unassigned) [Example 73c, [4-Chloro-2-methoxy-3-(1,3-thiazol-2-ylmethoxy)quinolin-6-yl](2,6-dimethylpyridin-3-yl)(1-methyl-1H-1,2,3-triazol-5-yl)methanol] | −80% |
| COc1nc2ccc(C(O)(c3ccc(C)nc3C)c3cnnn3C)cc2c(Cl)c1CN1CCC(C(F)(F)F)CC1 (single isomer, unassigned) [Example 103c, (4-Chloro-2-methoxy-3-((4-(trifluoromethyl)piperidin-1-yl)methyl)quinolin-6-yl)(2,6-dimethylpyridin-3-yl)(1-methyl-1H-1,2,3-triazol-5-yl)methanol] | 99% |
| COc1nc2ccc(C(O)(c3ccc(C)nc3C)c3cnnn3C)cc2c(Cl)c1CN1CCC(n2cccn2)CC1 (single isomer, unassigned) [Example 105b, (3-((4-(1H-Pyrazol-1-yl)piperidin-1-yl)methyl)-4-chloro-2-methoxyquinolin-6-yl)(2,6-dimethylpyridin-3-yl)(1-methyl-1H-1,2,3-triazol-5-yl)methanol] | 33% |

Next, values leading:

| RORγt (LBD) Reporter Assay, % inhibition @ 6 μM | SMILES |
| --- | --- |
| 54% | COc1nc2ccc(C(O)(c3ccc(C)nc3C)c3cnnn3C)cc2c(Cl)c1OCC1CC1 (single isomer, unassigned) [Example 68b, [4-Chloro-3-(cyclopropylmethoxy)-2-methoxyquinolin-6-yl](2,6-dimethylpyridin-3-yl)(1-methyl-1H-1,2,3-triazol-5-yl)methanol] |
| 66% | COc1nc2ccc(C(O)(c3ccc(C)nc3C)c3cnnn3C)cc2c(Cl)c1CC1CCC(F)(F)CC1 (single isomer, unassigned) [Example 1c, (4-Chloro-3-((4,4-difluorocyclohexyl)methyl)-2-methoxyquinolin-6-yl)(2,6-dimethylpyridin-3-yl)(1-methyl-1H-1,2,3-triazol-5-yl)methanol] |
| 14% | COc1nc2ccc(C(O)(c3ccc(C)nc3C)c3cnnn3C)cc2c(Cl)c1CN1CCC(F)CC1 (single isomer, unassigned) [Example 108c, (4-Chloro-3-((4-fluoropiperidin-1-yl)methyl)-2-methoxyquinolin-6-yl)(2,6-dimethylpyridin-3-yl)(1-methyl-1H-1,2,3-triazol-5-yl)methanol] |
| 53% | COc1nc2ccc(C(O)(c3ccc(C)nc3C)c3cnnn3C)cc2c(Cl)c1OCC1CC1(F)F (single isomer, unassigned) [Example 72b, {4-Chloro-3-[(2,2-difluorocyclopropyl)methoxy]-2-methoxyquinolin-6-yl}(2,6-dimethylpyridin-3-yl)(1-methyl-1H-1,2,3-triazol-5-yl)methanol] |
| 6% | COc1nc2ccc(C(O)(c3ccc(C)nc3C)c3cnnn3C)cc2c(Cl)c1CN1CCC(F)CC1 (single isomer, unassigned) [Example 108b, (4-Chloro-3-((4-fluoropiperidin-1-yl)methyl)-2-methoxyquinolin-6-yl)(2,6-dimethylpyridin-3-yl)(1-methyl-1H-1,2,3-triazol-5-yl)methanol] |
| 72% | COc1nc2ccc(C(O)(c3ccc(C)nc3C)c3cnnn3C)cc2c(Cl)c1CC1CC1 (single isomer, unassigned) [Example 14b, (4-Chloro-3-(cyclopropylmethyl)-2-methoxyquinolin-6-yl)(2,6-dimethylpyridin-3-yl)(1-methyl-1H-1,2,3-triazol-5-yl)methanol] |

Same assay, conditions: HEK-293T, read-out: RORγt (LBD) Reporter Assay, % inhibition @ 6 μM, @ 6 μM

| SMILES | inhibition at 6 µM |
| --- | --- |
| COc1nc2ccc(C(O)(c3ccc(C)nc3C)c3cnnn3C)cc2c(Cl)c1OC1CCN(C)CC1 (single isomer, unassigned) [Example 65b, {4-Chloro-2-methoxy-3-[(1-methylpiperidin-4-yl)oxy]quinolin-6-yl}(2,6-dimethylpyridin-3-yl)(1-methyl-1H-1,2,3-triazol-5-yl)methanol] | 39% |
| COc1nc2ccc(C(O)(c3ccc(C)nc3C)c3cnnn3C)cc2c(Cl)c1OC1CCOCC1 (stereo not drawn) [Example 69a, [4-Chloro-2-methoxy-3-(tetrahydro-2H-pyran-4-yloxy)quinolin-6-yl](2,6-dimethylpyridin-3-yl)(1-methyl-1H-1,2,3-triazol-5-yl)methanol] | 57% |
| COc1nc2ccc(C(O)(c3cncn3C)C3CCN(C(C)=O)CC3)cc2c(Cl)c1CC1CCOCC1 (single isomer, unassigned) [Example 5b, 1-(4-((4-Chloro-2-methoxy-3-((tetrahydro-2H-pyran-4-yl)methyl)quinolin-6-yl)(hydroxy)(1-methyl-1H-imidazol-5-yl)methyl)piperidin-1-yl)ethanone] | 33% |
| COc1nc2ccc(C(O)(c3ccc(C(F)(F)F)nc3)c3cncn3C)cc2c(Cl)c1CN1CCC(C(F)(F)F)CC1 (single isomer, unassigned) [Example 112b, (4-Chloro-2-methoxy-3-((4-(trifluoromethyl)piperidin-1-yl)methyl)quinolin-6-yl)(1-methyl-1H-imidazol-5-yl)(6-(trifluoromethyl)pyridin-3-yl)methanol] | 97% |
| COc1nc2ccc(C(O)(c3ccc(C)nc3C)c3cnnn3C)cc2c(Cl)c1C (stereo not drawn) [Example 12a, (4-Chloro-2-methoxy-3-methylquinolin-6-yl)(2,6-dimethylpyridin-3-yl)(1-methyl-1H-1,2,3-triazol-5-yl)methanol] | 93% |
| COc1nc2ccc(C(O)(c3ccc(C)nc3C)c3cnnn3C)cc2c(Cl)c1CN1CCC(C(F)(F)F)CC1 (stereo not drawn) [Example 103a, (4-Chloro-2-methoxy-3-((4-(trifluoromethyl)piperidin-1-yl)methyl)quinolin-6-yl)(2,6-dimethylpyridin-3-yl)(1-methyl-1H-1,2,3-triazol-5-yl)methanol] | 101% |
| COc1nc2ccc(C(O)(c3ccc(C)nc3C)c3cnnn3C)cc2c(Cl)c1CN1CCC(C(F)(F)F)CC1 (single isomer, unassigned) [Example 103b, (4-Chloro-2-methoxy-3-((4-(trifluoromethyl)piperidin-1-yl)methyl)quinolin-6-yl)(2,6-dimethylpyridin-3-yl)(1-methyl-1H-1,2,3-triazol-5-yl)methanol] | 90% |
| COc1nc2ccc(C(O)(c3ccnc(C(F)(F)F)c3)c3cncn3C)cc2c(Cl)c1CN1CCC(C(F)(F)F)CC1 (single isomer, unassigned) [Example 100b, (4-Chloro-2-methoxy-3-((4-(trifluoromethyl)piperidin-1-yl)methyl)quinolin-6-yl)(1-methyl-1H-imidazol-5-yl)(2-(trifluoromethyl)pyridin-4-yl)methanol] | 90% |

Continued, values first:

| inhibition at 6 µM | SMILES |
| --- | --- |
| 99% | COc1nc2ccc(C(O)(c3ccc(C)nc3C)c3cnnn3C)cc2c(Cl)c1CC1CC1 (stereo not drawn) [Example 14a, (4-Chloro-3-(cyclopropylmethyl)-2-methoxyquinolin-6-yl)(2,6-dimethylpyridin-3-yl)(1-methyl-1H-1,2,3-triazol-5-yl)methanol] |
| 38% | COc1nc2ccc(C(O)(c3ccc(C)nc3C)c3cnnn3C)cc2c(Cl)c1CN1CCC(F)(F)CC1 (single isomer, unassigned) [Example 107b, (4-Chloro-3-((4,4-difluoropiperidin-1-yl)methyl)-2-methoxyquinolin-6-yl)(2,6-dimethylpyridin-3-yl)(1-methyl-1H-1,2,3-triazol-5-yl)methanol] |
